Test results published in publication PMC9610647, “Acetylcholinesterase Inhibitory Activities of Essential Oils from Vietnamese Traditional Medicinal Plants” (Molecules, 2022).

Tests used:
[1] = tested on: AChE of bovine erythrocytes; conditions: cited from earlier work
[2] = tested on: AChE; conditions: cited from earlier work
[3] = target: T1, electric eel AChE (Electrophorus electricus, UniProt O42275); test: Acetylcholinesterase (AChE) inhibition assay, Ellman method; type: biochemical; conditions: for inhibition at 4 µg/mL: read-out: Acetylcholinesterase inhibitory activity at 4 µg/mL; for inhibition at 20 µg/mL: read-out: Acetylcholinesterase inhibitory activity at 20 µg/mL; for inhibition at 100 µg/mL: read-out: Acetylcholinesterase inhibitory activity at 100 µg/mL; for inhibition at 500 µg/mL: read-out: Acetylcholinesterase inhibitory activity at 500 µg/mL
T1 construct: purchased Sigma-Aldrich
Protocol: Acetylcholinesterase (AChE) inhibitory activity of essential oil was determined according to the method described by Ellman and our previous study. The stock solution was obtained by dissolving the essential oil in DMSO (Merck), which was then diluted with H2O (deionized distilled water) to obtain different experimental concentrations. Each solution mixture consisted of 140 μL of phosphate buffer solution (pH: 8), 20 μL of essential oil at concentrations of 500, 100, 20, and 4 μg/mL, and 20 μL of the enzyme AChE (0.25 IU/mL, Sigma-Aldrich, St. Louis, MO, USA). The reaction mixtures were transferred to the test wells of a 96-well microtiter plate and incubated at 25 °C for 15 min. Then, solutions of 10 μL dithiobisnitrobenzoic acid (DTNB, 2.5 mM, Sigma-Aldrich) and 10 μL acetylthiocholine iodide (ACTI, 2.5 mM, Sigma-Aldrich) were added to each of the test wells and incubation continued for 10 min at 25 °C. […] Each test was carried out in triplicate.

[4] = tested on: AChE from Electrophorus electricus (electric eel); conditions: cited from earlier work
[5] = tested on: AChE from human erythrocytes; conditions: cited from earlier work
[6] = IC50 (μM), IC50 ± standard deviation
[7] = IC50, IC50 ± standard deviation

T1 sequence (O42275 24-633): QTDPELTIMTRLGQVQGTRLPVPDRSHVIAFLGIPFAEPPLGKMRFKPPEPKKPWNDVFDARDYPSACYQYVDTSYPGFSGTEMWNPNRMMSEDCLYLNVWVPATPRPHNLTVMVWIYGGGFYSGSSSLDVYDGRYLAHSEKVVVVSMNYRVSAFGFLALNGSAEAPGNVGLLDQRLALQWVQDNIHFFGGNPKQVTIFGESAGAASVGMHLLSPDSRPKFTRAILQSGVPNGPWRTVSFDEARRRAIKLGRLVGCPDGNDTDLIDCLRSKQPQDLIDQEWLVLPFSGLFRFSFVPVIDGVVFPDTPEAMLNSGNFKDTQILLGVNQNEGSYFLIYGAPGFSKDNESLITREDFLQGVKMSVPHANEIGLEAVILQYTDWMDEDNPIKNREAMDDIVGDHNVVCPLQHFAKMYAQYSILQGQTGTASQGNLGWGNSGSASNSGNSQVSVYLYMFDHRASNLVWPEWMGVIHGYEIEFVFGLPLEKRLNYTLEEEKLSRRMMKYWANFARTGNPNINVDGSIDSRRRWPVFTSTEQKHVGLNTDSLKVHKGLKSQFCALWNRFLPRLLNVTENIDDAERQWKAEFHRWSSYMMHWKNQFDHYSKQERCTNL

Row | SMILES | IC50 [2] [µM] | IC50 [3, 6] [µM] | IC50 [3, 7] [µM] | inhibition at 4 µg/mL [3] [%] | inhibition at 20 µg/mL [3] [%] | inhibition at 100 µg/mL [3] [%] | inhibition at 500 µg/mL [3] [%] | also measured
1 | CC1=CCC2CC1C2(C)C (stereo not drawn) [α-Pinene, reference compound] | – | – | – | – | – | – | – | IC50 [1]: 660 ± 40 µM
2 | C=C1CCC2(C(C)C)CC12 (stereo not drawn) [Sabinene] | 1300 ± 21 | – | – | – | – | – | – | –
3 | C=C(C)C1CC=C(C)CC1 (stereo not drawn) [Limonene] | – | 390 ± 30 | 390 | 18.2 | 27 | 67.7 | 90.8 | –
4 | CC1=CCCC(C)=CCC(C)(C)C=CC1 [α-Humulene] | – | 785 ± 66 | 785 | 19.4 | 25.1 | 44.3 | 72.8 | –
5 | C=C(C)C1CC=C(C)C(O)C1 (stereo not drawn) [trans-Carveol] | – | 676 | 676 | 1.19 | 16.8 | 55.3 | 76.9 | –
6 | CC1(C)C2CC=C(C=O)C1C2 (stereo not drawn) [Myrtenal] | 170 | – | – | – | – | – | – | –
7 | CC12CCC(CC1)C(C)(C)O2 [1,8-Cineole, reference compound] | – | – | – | – | – | – | – | IC50 [1]: 390 ± 60 µM; IC50 [4]: 6 µM
8 | C=C1CCC2CC1C2(C)C (stereo not drawn) [β-Pinene] | – | 525 ± 42.4 | 524 | 20.9 | 28.9 | 58.9 | 86.5 | IC50 [1]: ~1500 µM
9 | C=C1CCC=C(C)CCC2C1CC2(C)C (stereo not drawn) [(E)-β-Caryophyllene] | – | 436 ± 29.9 | 436 | 6.09 | 26.3 | 52.9 | 79 | inhibition of AChE ([4]; concentration 0.06 mM): 32%; IC50 [5]: 147 ± 15 µM
10 | CC1=CC[C@@H](C(C)(C)O)CC1 [α-terpineol] | 8400 ± 400 | – | – | – | – | – | – | –
11 | C=C1CC[C@H]2O[C@]2(C)CC[C@@H]2[C@@H]1CC2(C)C [Caryophyllene Oxide] | – | 1450 ± 61 | 1450 | -2.11 | 0.49 | 16.9 | 74 | AChE inhibition ([1]; 250 µg/mL): 35 ± 4.7%; AChE inhibition ([4]; 200 µg/mL): 41.46 ± 2.66%
12 | CC1=CC=C(C(C)C)CC1 [α-terpinene] | 1000 | – | – | – | – | – | – | –
